{"source": "patent US12054744B2", "about": "“NK cells exhibiting an adaptive phenotype and methods for preparing and for using” (Regents of the University of Minnesota, priority 2015, dated 2024)", "tested_on": "TIGIT", "test": "Flow cytometry of TIGIT and other receptors on NK cells", "type": "cell-based, human", "details": "cultured overnight; IL-15 10 ng/mL alone, or additional anti-CD16 1 μg/mL", "description": "FIG. 11A. Purified NK cells from healthy blood donors were cultured before staining in the absence or presence of IL-15 (10 ng/mL) alone or with the additional stimulation of IL-12 (10 ng/mL) and IL-18 (100 ng/mL) for 18 hours or with stimulation with anti-CD16 (1 μg/mL) for 6 hours. One of four independent experiments is shown. NK cells were cultured with autologous MDSCs or freshly isolated monocytes at a 2:1 ratio in presence of IL-15 (10 ng/mL) for 5 days. Cells were stimulated with anti-CD16 six hours prior to analysis. Representative histograms for DNAM-1 (FIG. 11B) and TIGIT expression (FIG. 11C) and aggregate data for TIGIT expression (n=8) are shown as mean fluorescence intensity (MFI)±SEM. Two-Way ANOVA was used for statistical analysis. FIG. 11D. NK cells before and after co-culture with monocytes or MDSC were analyzed for co-expression of DNAM-1 and TIGIT. Representative data is shown of 3 independent experiments and 7 replicates. […]\nPurified NK cells or MDS PBMC (FIG. 17) cultured with monocytes or MDSCs for different time points and with different stimuli were resuspended in staining buffer (PBS containing 0.5% human AB serum) and stained with fluorochrome-conjugated antibodies (Table IV). […] All cells were acquired by LSRII and analyzed by FlowJo. […]"}
{"substance": "IL-15: cytokine in culture medium, low-dose 1 ng/mL or high-dose 10 ng/mL", "values": [{"measurement": "TIGIT expression on purified NK cells", "value": "slighted upregulated"}]}
